ChEMBL document CHEMBL5463729, “Data for DCP probe BAY 1753011” (2023)

Tests used:
[1] = molecular target: Cyclin-dependent kinase 1/cyclin B1 (Homo sapiens) (UniProt P06493+P14635); test: Inhibition of CDK1/cyclinB(h) at 10.0 µM in the Eurofins Kinase panel; type: protein-complex assay; details: Compound concentration 10.0 uM
[2] = molecular target: Casein kinase I isoform alpha (Homo sapiens) (UniProt P48729); test: Inhibition of CK1alpha(h) at 10.0 µM in the Eurofins Kinase panel; details: Compound concentration 10.0 uM
[3] = molecular target: Serine/threonine-protein kinase 17B (Homo sapiens) (UniProt O94768); test: Inhibition of DRAK2(h) at 10.0 µM in the Eurofins Kinase panel; details: Compound concentration 10.0 uM
Sequence of Serine/threonine-protein kinase 17B (Homo sapiens) (O94768 whole entry): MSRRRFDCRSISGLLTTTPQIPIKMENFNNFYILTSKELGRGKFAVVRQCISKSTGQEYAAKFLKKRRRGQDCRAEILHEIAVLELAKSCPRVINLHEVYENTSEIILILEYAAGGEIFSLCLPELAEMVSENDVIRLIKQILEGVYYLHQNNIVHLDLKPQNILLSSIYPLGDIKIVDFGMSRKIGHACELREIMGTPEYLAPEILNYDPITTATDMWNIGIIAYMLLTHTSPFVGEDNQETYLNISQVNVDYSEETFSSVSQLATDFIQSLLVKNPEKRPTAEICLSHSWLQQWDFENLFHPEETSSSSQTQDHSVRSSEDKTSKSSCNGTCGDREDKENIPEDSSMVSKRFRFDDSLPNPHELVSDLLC

[4] = molecular target: Eukaryotic translation initiation factor 2-alpha kinase 1 (Homo sapiens) (UniProt Q9BQI3); test: Inhibition of HRI(h) at 10.0 µM in the Eurofins Kinase panel; details: Compound concentration 10.0 uM
[5] = molecular target: Insulin receptor (Homo sapiens) (UniProt P06213); test: Inhibition of IR(h), activated at 10.0 µM in the Eurofins Kinase panel; details: Compound concentration 10.0 uM
[6] = molecular target: LIM domain kinase 2 (Homo sapiens) (UniProt P53671); test: Inhibition of LIMK2(h) at 10.0 µM in the Eurofins Kinase panel; details: Compound concentration 10.0 uM
[7] = molecular target: Mitogen-activated protein kinase kinase kinase kinase 5 (Homo sapiens) (UniProt Q9Y4K4); test: Inhibition of MAP4K5(h) at 10.0 µM in the Eurofins Kinase panel; details: Compound concentration 10.0 uM
[8] = molecular target: Serine/threonine-protein kinase MRCK gamma (Homo sapiens) (UniProt Q6DT37); test: Inhibition of MRCKgamma(h) at 10.0 µM in the Eurofins Kinase panel; details: Compound concentration 10.0 uM
[9] = molecular target: Serine/threonine-protein kinase 24 (Homo sapiens) (UniProt Q9Y6E0); test: Inhibition of MST3(h) at 10.0 µM in the Eurofins Kinase panel; details: Compound concentration 10.0 uM
[10] = molecular target: Serine/threonine-protein kinase Nek2 (Homo sapiens) (UniProt P51955); test: Inhibition of NEK2(h) at 10.0 µM in the Eurofins Kinase panel; details: Compound concentration 10.0 uM
Sequence of Serine/threonine-protein kinase Nek2 (Homo sapiens) (P51955 whole entry): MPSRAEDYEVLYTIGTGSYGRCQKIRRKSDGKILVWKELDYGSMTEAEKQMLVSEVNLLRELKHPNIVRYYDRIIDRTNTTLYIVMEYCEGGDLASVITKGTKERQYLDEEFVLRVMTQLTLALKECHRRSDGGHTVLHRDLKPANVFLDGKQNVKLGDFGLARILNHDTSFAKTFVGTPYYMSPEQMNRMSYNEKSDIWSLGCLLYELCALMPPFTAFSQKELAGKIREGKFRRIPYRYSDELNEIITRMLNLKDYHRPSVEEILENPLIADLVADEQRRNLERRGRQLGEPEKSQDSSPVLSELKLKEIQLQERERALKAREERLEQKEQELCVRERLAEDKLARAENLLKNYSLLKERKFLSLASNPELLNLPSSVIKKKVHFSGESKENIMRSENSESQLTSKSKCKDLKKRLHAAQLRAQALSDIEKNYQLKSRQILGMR

[11] = molecular target: Serine/threonine-protein kinase Nek9 (Homo sapiens) (UniProt Q8TD19); test: Inhibition of NEK9(h) at 10.0 µM in the Eurofins Kinase panel; details: Compound concentration 10.0 uM
[12] = molecular target: Protein kinase C iota type (Homo sapiens) (UniProt P41743); test: Inhibition of PKCiota(h) at 10.0 µM in the Eurofins Kinase panel; details: Compound concentration 10.0 uM
[13] = molecular target: Tyrosine-protein kinase FRK (Homo sapiens) (UniProt P42685); test: Inhibition of PTK5(h) at 10.0 µM in the Eurofins Kinase panel; details: Compound concentration 10.0 uM
[14] = molecular target: Rho-associated protein kinase 1 (Homo sapiens) (UniProt Q13464); test: Inhibition of ROCK-I(h) at 10.0 µM in the Eurofins Kinase panel; details: Compound concentration 10.0 uM
[15] = molecular target: Mitogen-activated protein kinase 11 (Homo sapiens) (UniProt Q15759); test: Inhibition of SAPK2b(h) at 10.0 µM in the Eurofins Kinase panel; details: Compound concentration 10.0 uM
[16] = molecular target: Serine/threonine-protein kinase SIK2 (Homo sapiens) (UniProt Q9H0K1); test: Inhibition of SIK2(h) at 10.0 µM in the Eurofins Kinase panel; details: Compound concentration 10.0 uM
[17] = molecular target: Serine/threonine-protein kinase 32B (Homo sapiens) (UniProt Q9NY57); test: Inhibition of STK32B(h) at 10.0 µM in the Eurofins Kinase panel; details: Compound concentration 10.0 uM
[18] = molecular target: Serine/threonine-protein kinase WNK4 (Homo sapiens) (UniProt Q96J92); test: Inhibition of WNK4(h) at 10.0 µM in the Eurofins Kinase panel; details: Compound concentration 10.0 uM
Sequence of Serine/threonine-protein kinase WNK4 (Homo sapiens) (Q96J92 whole entry): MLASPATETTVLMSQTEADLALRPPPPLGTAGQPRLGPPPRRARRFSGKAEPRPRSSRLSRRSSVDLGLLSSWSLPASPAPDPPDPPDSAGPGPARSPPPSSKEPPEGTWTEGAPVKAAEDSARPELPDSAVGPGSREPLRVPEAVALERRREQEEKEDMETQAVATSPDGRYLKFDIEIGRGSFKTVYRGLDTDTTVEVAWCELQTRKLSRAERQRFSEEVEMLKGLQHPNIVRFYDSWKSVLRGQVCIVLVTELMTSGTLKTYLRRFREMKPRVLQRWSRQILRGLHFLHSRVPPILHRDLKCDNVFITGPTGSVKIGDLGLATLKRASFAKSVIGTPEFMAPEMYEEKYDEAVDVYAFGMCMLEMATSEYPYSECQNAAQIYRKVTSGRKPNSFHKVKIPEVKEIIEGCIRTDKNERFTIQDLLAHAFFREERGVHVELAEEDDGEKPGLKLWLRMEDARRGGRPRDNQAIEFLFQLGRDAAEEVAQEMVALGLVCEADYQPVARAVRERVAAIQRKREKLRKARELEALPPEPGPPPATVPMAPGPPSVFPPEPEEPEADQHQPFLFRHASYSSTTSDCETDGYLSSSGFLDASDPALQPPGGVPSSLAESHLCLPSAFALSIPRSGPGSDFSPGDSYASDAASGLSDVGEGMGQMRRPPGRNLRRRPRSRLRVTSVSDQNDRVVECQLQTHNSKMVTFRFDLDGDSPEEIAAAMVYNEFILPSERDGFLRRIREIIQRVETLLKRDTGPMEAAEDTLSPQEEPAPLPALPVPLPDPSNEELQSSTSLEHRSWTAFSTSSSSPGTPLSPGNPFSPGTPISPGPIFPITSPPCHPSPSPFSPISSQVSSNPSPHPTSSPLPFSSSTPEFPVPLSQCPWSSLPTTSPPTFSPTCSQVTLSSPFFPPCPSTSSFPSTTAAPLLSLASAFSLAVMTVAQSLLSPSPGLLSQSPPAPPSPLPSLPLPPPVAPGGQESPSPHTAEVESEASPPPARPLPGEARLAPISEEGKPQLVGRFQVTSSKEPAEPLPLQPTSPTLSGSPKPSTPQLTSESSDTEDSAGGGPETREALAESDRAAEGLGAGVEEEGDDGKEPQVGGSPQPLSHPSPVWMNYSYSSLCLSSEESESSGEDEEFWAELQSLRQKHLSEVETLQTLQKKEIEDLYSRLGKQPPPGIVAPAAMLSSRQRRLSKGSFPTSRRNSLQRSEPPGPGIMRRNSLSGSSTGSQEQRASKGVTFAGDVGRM

[19] = molecular target: Tyrosine-protein kinase ZAP-70 (Homo sapiens) (UniProt P43403); test: Inhibition of ZAP-70(h) at 10.0 µM in the Eurofins Kinase panel; details: Compound concentration 10.0 uM
Sequence of Tyrosine-protein kinase ZAP-70 (Homo sapiens) (P43403 whole entry): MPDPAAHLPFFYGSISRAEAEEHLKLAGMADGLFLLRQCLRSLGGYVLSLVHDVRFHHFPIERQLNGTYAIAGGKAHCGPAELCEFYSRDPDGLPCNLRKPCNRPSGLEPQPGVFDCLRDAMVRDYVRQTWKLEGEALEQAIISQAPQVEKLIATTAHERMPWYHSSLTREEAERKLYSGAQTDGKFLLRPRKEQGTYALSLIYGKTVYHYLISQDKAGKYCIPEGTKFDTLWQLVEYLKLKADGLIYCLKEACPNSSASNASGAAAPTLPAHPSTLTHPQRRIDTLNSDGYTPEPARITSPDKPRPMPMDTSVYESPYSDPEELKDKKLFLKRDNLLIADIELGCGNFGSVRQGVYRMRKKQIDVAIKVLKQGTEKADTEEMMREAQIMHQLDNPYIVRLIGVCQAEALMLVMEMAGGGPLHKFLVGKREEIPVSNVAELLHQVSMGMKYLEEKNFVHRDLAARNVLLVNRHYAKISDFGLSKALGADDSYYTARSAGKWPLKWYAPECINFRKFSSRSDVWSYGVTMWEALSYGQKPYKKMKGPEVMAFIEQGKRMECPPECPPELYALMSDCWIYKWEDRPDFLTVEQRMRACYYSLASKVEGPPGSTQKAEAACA

[20] = molecular target: Serine-protein kinase ATM (Homo sapiens) (UniProt Q13315); test: Inhibition of ATM(h) at 10.0 µM in the Eurofins Kinase panel; details: Compound concentration 10.0 uM
[21] = molecular target: PI3-kinase p110-alpha/p85-alpha (Homo sapiens) (UniProt P27986+P42336); test: Inhibition of PI3 Kinase (p110a/p85a)(h) at 10.0 µM in the Eurofins Kinase panel; type: protein-complex assay; details: Compound concentration 10.0 uM
[22] = molecular target: Phosphatidylinositol 5-phosphate 4-kinase type-2 alpha (Homo sapiens) (UniProt P48426); test: Inhibition of PIP4K2a(h) at 10.0 µM in the Eurofins Kinase panel; details: Compound concentration 10.0 uM
[23] = molecular target: Histamine H4 receptor (Homo sapiens) (UniProt Q9H3N8); details: Compound concentration 10.0 uM
Sequence of Histamine H4 receptor (Homo sapiens) (Q9H3N8 whole entry): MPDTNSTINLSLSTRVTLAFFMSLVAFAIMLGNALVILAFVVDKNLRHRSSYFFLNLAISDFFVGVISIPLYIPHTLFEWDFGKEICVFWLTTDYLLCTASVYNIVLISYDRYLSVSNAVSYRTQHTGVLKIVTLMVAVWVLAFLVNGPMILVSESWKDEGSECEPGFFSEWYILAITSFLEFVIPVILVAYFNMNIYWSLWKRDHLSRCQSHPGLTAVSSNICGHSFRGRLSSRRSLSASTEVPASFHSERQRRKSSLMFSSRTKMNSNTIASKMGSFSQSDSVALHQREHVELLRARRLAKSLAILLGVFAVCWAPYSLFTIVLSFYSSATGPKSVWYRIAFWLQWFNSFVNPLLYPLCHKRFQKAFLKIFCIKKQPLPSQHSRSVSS

[24] = molecular target: T1, Alpha-2B adrenergic receptor (Homo sapiens) (UniProt P18089); details: Compound concentration 10.0 uM
T1 sequence (whole entry): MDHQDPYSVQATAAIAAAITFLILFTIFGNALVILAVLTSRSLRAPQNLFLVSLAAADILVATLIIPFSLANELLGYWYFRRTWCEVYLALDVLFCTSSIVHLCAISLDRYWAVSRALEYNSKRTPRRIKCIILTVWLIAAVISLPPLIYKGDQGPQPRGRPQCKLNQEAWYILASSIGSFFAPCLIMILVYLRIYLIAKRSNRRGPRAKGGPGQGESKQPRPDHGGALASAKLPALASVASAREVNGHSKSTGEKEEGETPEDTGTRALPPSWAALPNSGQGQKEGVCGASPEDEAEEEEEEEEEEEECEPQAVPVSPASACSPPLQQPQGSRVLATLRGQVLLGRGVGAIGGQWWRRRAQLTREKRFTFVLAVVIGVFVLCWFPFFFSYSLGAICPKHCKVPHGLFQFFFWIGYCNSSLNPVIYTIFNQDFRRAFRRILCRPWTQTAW

[25] = molecular target: Sigma non-opioid intracellular receptor 1 (Homo sapiens) (UniProt Q99720); details: Compound concentration 10.0 uM
Sequence of Sigma non-opioid intracellular receptor 1 (Homo sapiens) (Q99720 whole entry): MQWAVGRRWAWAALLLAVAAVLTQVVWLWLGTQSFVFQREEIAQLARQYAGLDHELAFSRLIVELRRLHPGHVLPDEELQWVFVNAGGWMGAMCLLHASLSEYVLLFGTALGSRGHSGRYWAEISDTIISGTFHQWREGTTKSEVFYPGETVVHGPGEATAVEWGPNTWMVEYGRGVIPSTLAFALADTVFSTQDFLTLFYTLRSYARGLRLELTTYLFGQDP

[26] = molecular target: GABA-A receptor; anion channel (Rattus norvegicus) (UniProt O09028+P15431+P18506+P18508+P19969+P20236+P23574+P23576+P28471+P28473+P30191+P62813+P63079+P63138+Q91ZM7+Q9ES14); details: Compound concentration 10.0 uM
[27] = molecular target: Sodium-dependent dopamine transporter (Homo sapiens) (UniProt Q01959); details: Compound concentration 10.0 uM
[28] = molecular target: Glucocorticoid receptor (Homo sapiens) (UniProt P04150); details: Compound concentration 10.0 uM
[29] = molecular target: Glutamate receptor 2 (Homo sapiens) (UniProt P42262); details: Rattus norvegicus; Compound concentration 10.0 uM
Sequence of Glutamate receptor 2 (Homo sapiens) (P42262 whole entry): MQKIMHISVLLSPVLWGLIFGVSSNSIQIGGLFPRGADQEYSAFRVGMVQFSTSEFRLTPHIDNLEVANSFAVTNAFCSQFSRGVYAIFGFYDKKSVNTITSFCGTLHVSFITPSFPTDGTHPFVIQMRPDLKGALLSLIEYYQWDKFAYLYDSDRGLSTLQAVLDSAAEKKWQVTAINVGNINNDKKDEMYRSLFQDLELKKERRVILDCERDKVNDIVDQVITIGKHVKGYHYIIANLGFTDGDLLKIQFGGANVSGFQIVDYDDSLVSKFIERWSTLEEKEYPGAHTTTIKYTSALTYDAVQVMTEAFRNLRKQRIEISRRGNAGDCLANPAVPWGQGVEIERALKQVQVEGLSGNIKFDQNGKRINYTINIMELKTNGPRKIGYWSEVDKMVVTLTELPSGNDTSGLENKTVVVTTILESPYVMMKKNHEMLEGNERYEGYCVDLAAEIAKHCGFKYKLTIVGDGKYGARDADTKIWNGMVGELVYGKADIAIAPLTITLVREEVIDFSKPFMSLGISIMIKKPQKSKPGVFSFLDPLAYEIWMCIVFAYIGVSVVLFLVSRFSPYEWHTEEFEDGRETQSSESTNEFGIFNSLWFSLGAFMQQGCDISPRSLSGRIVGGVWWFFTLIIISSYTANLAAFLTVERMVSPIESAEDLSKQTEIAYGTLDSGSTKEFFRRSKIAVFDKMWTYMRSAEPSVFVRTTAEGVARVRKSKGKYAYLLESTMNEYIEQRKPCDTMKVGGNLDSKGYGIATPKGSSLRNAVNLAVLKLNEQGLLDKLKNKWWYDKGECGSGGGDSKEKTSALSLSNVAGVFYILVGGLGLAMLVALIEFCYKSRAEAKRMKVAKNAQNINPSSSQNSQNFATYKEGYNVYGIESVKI

[30] = molecular target: Serine/threonine-protein kinase PAK 5 (Homo sapiens) (UniProt Q9P286); test: Inhibition of PAK5(h) at 10.0 µM in the Eurofins Kinase panel; details: Compound concentration 10.0 uM

Sequence of Cyclin-dependent kinase 1/cyclin B1 (Homo sapiens) (P06493 whole entry, looked up, canonical isoform): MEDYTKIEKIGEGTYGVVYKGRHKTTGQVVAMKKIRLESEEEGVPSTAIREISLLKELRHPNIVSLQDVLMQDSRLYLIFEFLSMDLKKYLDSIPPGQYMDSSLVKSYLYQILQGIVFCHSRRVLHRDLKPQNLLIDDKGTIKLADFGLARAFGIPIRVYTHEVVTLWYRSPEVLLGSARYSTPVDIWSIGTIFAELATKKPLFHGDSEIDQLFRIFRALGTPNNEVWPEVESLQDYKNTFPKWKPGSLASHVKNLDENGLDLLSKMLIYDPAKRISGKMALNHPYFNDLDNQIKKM
Sequence of Cyclin-dependent kinase 1/cyclin B1 (Homo sapiens) (P14635 whole entry, looked up, canonical isoform): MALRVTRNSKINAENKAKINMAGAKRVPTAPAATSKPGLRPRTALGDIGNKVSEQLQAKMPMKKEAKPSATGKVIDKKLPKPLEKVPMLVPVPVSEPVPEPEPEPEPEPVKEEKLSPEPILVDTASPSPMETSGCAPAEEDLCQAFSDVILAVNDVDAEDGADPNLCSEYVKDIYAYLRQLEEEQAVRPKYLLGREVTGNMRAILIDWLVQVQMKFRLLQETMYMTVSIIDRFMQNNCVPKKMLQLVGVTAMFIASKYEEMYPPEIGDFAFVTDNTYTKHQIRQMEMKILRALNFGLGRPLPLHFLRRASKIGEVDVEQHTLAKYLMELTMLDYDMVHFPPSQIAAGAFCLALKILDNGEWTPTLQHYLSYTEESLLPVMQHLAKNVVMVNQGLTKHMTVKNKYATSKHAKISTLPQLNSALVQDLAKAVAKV

Row | Structure (SMILES) | inhibition [1] | inhibition [2] | inhibition [3] | inhibition [4] | inhibition [5] | inhibition [6] | inhibition [7] | inhibition [8] | inhibition [9] | inhibition [10] | inhibition [11] | inhibition [12] | inhibition [13] | inhibition [14] | inhibition [15] | inhibition [16] | inhibition [17] | inhibition [18] | inhibition [19] | inhibition [20] | further results
1 | O=c1n(Cc2cncn2-c2cccc(Cl)c2)nc(-c2ccc(Cl)cc2)n1C[C@H](O)C(F)(F)F | -8.48% | -1.11% | -2.64% | -5.05% | 2.21% | 1.5% | -1.83% | 1.06% | 5.64% | -1.06% | 9.43% | 0.21% | 0.3% | -3.19% | -0.67% | 1.82% | -7.15% | 2.45% | 8.99% | -1.92% | inhibition [21]: -1.29%; inhibition [22]: -2.76%; inhibition [23]: 0.51%; inhibition [24]: 0.1%; inhibition [25]: 24.1%; inhibition [26]: -1%; inhibition [27]: 19%; inhibition [28]: 32%; inhibition [29]: 3%; inhibition [30]: 1.49%
2 | C[C@H](O)c1nc(Cn2nc(-c3ccc(Cl)cc3)n(C[C@H](O)C(F)(F)F)c2=O)nn1-c1cccc(Cl)c1 [PECAVAPTAN] | -5.4% | -1.65% | 2.39% | 6.64% | -4.02% | 0.25% | 6.21% | 2.11% | 3.02% | 3.19% | 7.88% | -3.93% | 0.28% | -2.67% | 1.32% | -3.07% | -0.99% | 10.5% | 2.69% | 1.99% | inhibition [21]: -2.88%; inhibition [22]: -0.83%; inhibition [23]: -1.47%; inhibition [24]: 16.1%; inhibition [25]: 27%; inhibition [26]: -1%; inhibition [27]: 4%; inhibition [28]: 1%; inhibition [29]: 2%; inhibition [30]: -3.61%
